What follows are compounds tested against T1, FLuc-C-HiBiT (Photinus pyralis, UniProt P08659) (assay: biochemical). Conditions: enzyme activity, 10 uM ATP; read-out: IC50 or SDR50 (mM) / FLuc E.
T1 construct: firefly luciferase with C-terminal HiBiT tag, E. coli expressed
Method: The enzyme activity of FLuc-N-HiBiT, FLuc-C-HiBiT, and FLuc-C-NLuc was measured similar to P. pyralis firefly luciferase (FLuc) as previously described. […] Compounds and controls were added to each plate as described in Supplementary Data 8 with a Hornet pintool system (Wako Automation). Compounds were incubated with respective enzymes for 30–60 min at room temperature protected from light and covered by solid metal lid to prevent evaporation. […] Luciferin was incubated with FLuc enzyme for 5 min before FLuc activity was then measured on a ViewLux CCD imager (PerkinElmer), with exposure times up to ten seconds with medium to high gain settings. Data were normalized to average no enzyme control as 100% enzyme inhibition and average DMSO neutral control. See Supplementary Table 4 for additional details. As a proof-of-concept target, we appended the sensor protein or corresponding α-peptide to either the N- or C-terminus of the target protein firefly luciferase (FLuc), an ATP cofactor-dependent monooxygenase (Supplementary Fig. 1a) having a broad, well-characterized and accessible ligand pharmacology. For initial characterization of the SDR concept, either NLuc or the 11 amino acid HiBiT tag (α-peptide) and complementary 18 kDa LgBiT subunit (ω-fragment), which self-assemble to reconstitute functional NLuc enzyme[24] were tested. In contrast to the ATP-dependent bioluminescent FLuc enzyme, NLuc generates a bright bioluminescence in an ATP-independent manner from the direct oxidation of furimazine (Supplementary Fig. 1b). […] Next, FLuc-C-NLuc, FLuc-N-HiBiT or FLuc-C-HiBiT were assayed with the same inhibitor in an SDR assay format by monitoring bioluminescence from NLuc or its reconstitution by α-complementation with LgBiT. Measurements of NLuc activity were made either in the absence or presence of the FLuc ATP cofactor, as NLuc bioluminescence is ATP-independent.

T1 sequence (P08659 whole entry, looked up): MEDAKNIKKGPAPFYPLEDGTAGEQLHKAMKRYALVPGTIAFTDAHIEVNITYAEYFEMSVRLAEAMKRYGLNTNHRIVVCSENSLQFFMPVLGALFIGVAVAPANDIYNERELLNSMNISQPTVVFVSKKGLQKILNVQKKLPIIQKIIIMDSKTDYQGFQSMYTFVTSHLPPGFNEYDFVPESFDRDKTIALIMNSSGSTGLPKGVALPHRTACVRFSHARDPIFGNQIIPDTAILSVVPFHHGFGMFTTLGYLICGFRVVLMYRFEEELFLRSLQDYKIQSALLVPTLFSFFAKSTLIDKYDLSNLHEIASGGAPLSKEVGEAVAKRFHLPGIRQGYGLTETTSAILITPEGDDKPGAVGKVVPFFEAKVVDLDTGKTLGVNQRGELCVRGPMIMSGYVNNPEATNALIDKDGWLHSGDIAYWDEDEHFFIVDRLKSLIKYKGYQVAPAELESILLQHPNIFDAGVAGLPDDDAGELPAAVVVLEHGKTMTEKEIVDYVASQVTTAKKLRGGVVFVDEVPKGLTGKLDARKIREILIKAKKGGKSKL

Compound	IC50 [µM]
COc1cc(NC(=O)c2ccc(-c3ncn[nH]3)cc2)ccc1NC(=O)C(C)(C)C [NCGC00432557-01]	12.4
Cc1cccc(NC(=O)c2ccc(-c3ccccc3)s2)c1 [NCGC00114320-01]	2.79
Cc1ccc(NC(=O)C2CCN(c3nc(-c4ccc(C(C)C)cc4)no3)CC2)c(Cl)c1 [NCGC00134062-01]	14
O=C(Cc1cccc(F)c1)N1CC(Oc2ccc(-c3nc(-c4ccccc4)no3)cc2)C1 [NCGC00441157-01]	12.4
COc1cccc(Nc2cc3c(cn2)CN(C)CCN3)c1 [NCGC00411064-01]	22.6
CSc1ccc(C(=O)Nc2ccc(-c3nc4ccccc4s3)c(O)c2)cc1 [NCGC00134695-01]	> 30
Cc1ccc(NC(=O)N2CCC(CCNC(=O)C3CC3)CC2)cc1F [NCGC00425057-01]	11.1
Cc1cc(C)cc(Nc2nc(-c3ccccc3F)no2)c1 [NCGC00422314-01]	6.24
C[C@@H]1C(=O)O[C@H]2[C@H]1CC[C@@]1(C)Cc3sc(NC(=O)c4ccncc4)nc3[C@@H](C)[C@H]21 [NCGC00401418-01]	0.57
Nc1nc(=O)c2[nH]c(=O)n(C3OC(CO)C(O)C3O)c2[nH]1 (centres unmarked) [NCGC00390457-01]	> 30
CCN(CC)c1cc(CCC(=O)O)ccn1 [NCGC00432823-01]	1.4
O=C(O)c1cccc(-c2noc(-c3ccc(Cl)cc3)n2)c1 [NCGC00168764-01]	0.00221
Cc1ccc(-c2ncc3c(n2)OCCN(C)C3=O)c(C)c1 [NCGC00413561-01]	22.6
COc1cccc(Nc2ncc(-c3cccnc3)c3c2OCC3)c1 [NCGC00412731-01]	18
O=C(Nc1cnc(-c2ccc(Cl)cc2)nc1)C1CCC1 [NCGC00432903-01]	1.24
Cc1ccc(-c2cc(N)n(-c3ccc(C)cc3)n2)cc1 [NCGC00141302-01]	9.89
COc1ccc(-c2nc3ccccc3s2)cc1NC(=O)c1ccccc1F [NCGC00103034-01]	> 30
COc1cccc(C(=O)Nc2ccc(-c3nc4ccccc4s3)c(O)c2)c1 [NCGC00594708-01]	> 30
Cc1ccc2oc(=O)c(-c3nc(-c4cccs4)no3)cc2c1 [NCGC00123382-01]	> 30
COc1ccc(-c2cc3c(=O)n(CCNC(=O)c4cccc(N(C)C)c4)ccn3n2)cc1 [NCGC00456929-01]	3.51
CCC(=O)Nc1cc2nn(-c3ccc(C)cc3)nc2cc1C [NCGC00098511-01]	0.394
O=C1C[C@H]2CC[C@@H](CN1)N2Cc1ccc(OCc2ccccc2)cc1 [NCGC00434033-01]	14
COc1ccc(NC(=O)Nc2ccc(C)n(CC(=O)O)c2=O)cc1 [NCGC00432735-01]	9.89

Compound	IC50 [µM]
CC(=O)N[C@@H]1C=C[C@@H](c2c(C)nn(-c3ccc(C(C)(C)C)cc3)c2C)C1 [NCGC00397882-01]	18
COc1cc(OC)cc(C(=O)Nc2cc(-c3nc4ccccc4s3)ccc2OC)c1 [NCGC00102359-01]	> 30
COc1ccc(-c2cccc(COc3cnc4c(ccn4CC(=O)O)c3)c2)c(C)c1 [NCGC00418229-01]	> 30
Clc1ccccc1Cc1cn2cc(-c3ccccc3)nc2s1 [NCGC00102100-01]	0.442
Cc1cc(C)cc(C(=O)NCCn2ccn3nc(-c4ccc(C)cc4C)cc3c2=O)c1 [NCGC00456988-01]	7
CC(=O)c1ccc(NC(=O)CSc2nnc(NC(=O)Nc3ccccc3)s2)cc1 [NCGC00136900-01]	0.881
CCNC(=O)N[C@@H]1C=C[C@@H](c2c(C)nn(-c3ccc(C(C)C)cc3)c2C)C1 [NCGC00399948-01]	2.86
COc1ccccc1OC(C)C(=O)Nc1cccc(-c2nc3ccccc3s2)c1 (centres unmarked) [NCGC00119157-01]	8.81
O=C(O)c1cccc(-c2noc(-c3cc([N+](=O)[O-])cc([N+](=O)[O-])c3)n2)c1 [NCGC00250195-01]	3.13
Cn1ccnc1CN1CCNc2cc(Nc3ccccc3)ncc2C1 [NCGC00411128-01]	16.1
Fc1ccc(-n2ncc3c(N4CCCCC4)nc(NN4CCOCC4)nc32)cc1 [NCGC00652353-01]	> 30
CCn1ncc(NC(=O)Cn2ncc3cc(-c4ccc(N(C)C)cc4)ccc32)n1 [NCGC00433406-01]	0.785
COc1ccc(OCc2cc(C(=O)N3C[C@H]4CC[C@H]3C4)n[nH]2)c(Cl)c1 [NCGC00428264-01]	> 30
COc1ccc(-c2cnc(Nc3ccccc3)c3c2CCO3)cn1 [NCGC00412779-01]	18
COc1ccc(OCC(=O)Nc2nc(-c3ccc(Br)cc3)ns2)cc1 [NCGC00118248-01]	> 30
Cc1ccc(-n2ncc3c(N4CCCCC4)ncnc32)cc1 [NCGC00139024-01]	0.197
CN(CCc1cn[nH]c1)c1ccc(-c2nc(-c3ccccc3F)no2)cn1 [NCGC00429241-01]	3.13
OC1(CN2CCCCC2)CCN(c2nc3ccccc3s2)C1 (centres unmarked) [NCGC00437487-01]	15.7
O=C(CCC[S+](=O)([O-])c1ccc(Cl)cc1)Nc1ccc(O)c(-c2nc3ccccc3s2)c1 [NCGC00347270-01]	> 30
Cc1ccc(-n2ncc3c(N(C)C)ncnc32)cc1Cl [NCGC00139189-01]	2.21
Cc1ccc(C2=CC(c3ccccc3C)n3c(nc4ccccc43)N2)cc1 (centres unmarked) [NCGC00140747-01]	4.42
O=C(NCC(F)(F)F)C1CCCN1c1nc2ncccc2o1 (centres unmarked) [NCGC00480238-01]	> 30
CC(Cc1cnccn1)Nc1ccc(-c2nc(-c3cccc(Cl)c3)no2)cn1 (centres unmarked) [NCGC00425352-01]	11.1

Other lines, results leading:

IC50 [µM]	Compound
10.1	O=C(Nc1ccccc1)c1nc2c(o1)CCN(Cc1cccc(Cl)c1)CC2 [NCGC00413390-01]
> 30	COc1ccc(C(=O)Nc2cccc(-c3nc4ccccc4s3)c2)cc1 [NCGC00596810-02]
3.94	CCOc1ccccc1NC(=O)Nc1cccc(-c2ccc(N3CCOCC3)nn2)c1 [NCGC00427574-01]
> 30	CCc1ccc2oc(-c3ccc(C)c(NC(=O)c4ccc(C#N)cc4F)c3)nc2c1 [NCGC00103160-01]
9.89	CC(=O)c1cccc(-c2nc3ccccc3s2)c1 [NCGC00167620-01]
> 30	Cc1ccc(-c2nc3ccccc3s2)cc1NC(=O)COc1ccccc1 [NCGC00098596-01]
25.4	CCN(CC)CCOc1ccc(-c2nc3cc(Cl)ccc3s2)cc1 [NCGC00160568-01]
1.97	Cc1ccc(-c2cc(C(=O)N3CCC(Cc4nncn4CC4CC4)CC3)c3ccccc3n2)cc1C [NCGC00456240-01]
9.89	CCOc1ccc(-c2cc(CCCC(=O)NCCc3ccc(OC)c(OC)c3)no2)cc1 [NCGC00110832-01]
9.89	CC1(Cc2ccc3c(c2)OCO3)CCCN(C(=O)c2ccc3ncsc3c2)C1 (centres unmarked) [NCGC00444241-01]
0.279	Cc1ccc2sc(-c3ccc(N)cc3)nc2c1 [NCGC00117377-01]
3.13	Cc1ccc(-c2cc3c(=O)n(CCNC(=O)c4ccc(N(C)C)cc4)ccn3n2)c(C)c1 [NCGC00456986-01]
11.1	COc1ccc(-c2cc(N3CCCC(NC(=O)c4c[nH]c5ccccc45)C3)[nH]n2)cc1 (centres unmarked) [NCGC00437686-01]
11.1	CN(C)c1ccc(NC(=O)c2ccc3c(c2)N(C)C2CCCCN2C3=O)cc1 (centres unmarked) [NCGC00452413-01]
11.1	COc1ccc(-c2cc(N3CCCC(NC(=O)c4ccc(OC)cc4OC)C3)[nH]n2)cc1 (centres unmarked) [NCGC00437622-01]
14	COc1ccc(-c2cc(N3CCCC(NC(=O)c4cccc5[nH]ccc45)C3)[nH]n2)cc1 (centres unmarked) [NCGC00437654-01]
16.1	O=C1c2cnc(-c3ccccc3)nc2OCCN1CC1CC1 [NCGC00413518-01]
18	CCOCC1(C)COc2ccc(C(=O)Nc3ccc(Cl)cc3)cc2N1 (centres unmarked) [NCGC00416138-01]
> 30	O=C(c1ccccc1C(F)(F)F)N1CCOc2c(cc(-c3nc4ccccc4s3)cc2OC2CCOC2)C1 (centres unmarked) [NCGC00240022-01]
5.08	O=C(Nc1ccccc1)c1nc2c(o1)CCN(Cc1ccc(O)cc1)CC2 [NCGC00413411-01]
> 30	Oc1cc(-c2nc3ccccc3s2)cc2c1OCCN(Cc1cccn1-c1ccc(Cl)cn1)C2 [NCGC00240283-01]
> 30	CCCCOc1ccc(C(=O)Nc2ccc(-c3nc4ccccc4s3)cc2C)cc1 [NCGC00102367-01]
2.79	CCn1cnnc1CC1CCN(C(=O)c2cc(-c3ccc(C)c(C)c3)nc3ccccc23)CC1 [NCGC00456253-01]
3.94	Cc1ccc(-c2cc3c(=O)n(CCNC(=O)c4cccc(Cl)c4)ccn3n2)c(C)c1 [NCGC00456978-01]
12.4	Cc1ccc2cc(CN3CCN(CC(N)=O)CC3)c(-c3cccs3)nc2c1 [NCGC00436639-01]
7.85	CC(C)c1noc(-c2nc(-c3ccc4c(c3)OCO4)no2)n1 [NCGC00450061-01]
11.1	Cc1ccc(C2Cn3nnc(C(=O)N4CCC(C(=O)Nc5ccc(F)cc5)CC4)c3CO2)cc1 (centres unmarked) [NCGC00449591-01]
3.13	N#Cc1c(-n2ncnc2-c2cccc(Br)c2)sc2c1CCCCC2 [NCGC00099370-01]

Source: publication PMC12064818, “A general assay platform to study protein pharmacology using ligand-dependent structural dynamics” (Nature Communications, 2025)
